In US10793563B2, “GCN2 inhibitors and uses thereof” (Merck Patent GmbH, priority 2018, dated 2020):

Target: GCN2 kinase (Homo sapiens (Human), UniProt Q9P2K8)
Experiment: GCN2 Enzyme Inhibition Assay (Transcreener ADP2 fluorescence polarization)
Assay type: biochemical
Conditions: 280 μM ATP, 200 μM (RS)7 peptide, 4 nM GCN2, 25° C.
Procedure: Compounds were screened for their ability to inhibit GCN2 kinase activity using a Transcreener® ADP^2 fluorescence polarization assay that detects ADP levels (BellBrook Labs, WI). Assays were carried out in a buffer consisting of 25 mM Tris-HCl (pH 7.5), 50 mM NaCl, 10 mM MgCl2 and 1 mM DTT. […] Assays were carried out at 25° C. in the presence of a (typical) final concentration of 4 nM GCN2 kinase. An assay buffer containing GCN2 kinase and (RS)7 was prepared. […] The plate was incubated for 10 minutes at 25° C. prior to the addition of 4.7 μL of ATP stock buffer to initiate the enzyme reaction. The reaction was allowed to proceed for 1 hour at 25° C., prior to the addition of 10 μL detection buffer (consisting of appropriate concentrations of ADP^2 antibody and ADP Alexa633 tracer in 1× stop and detect buffer as supplied by BellBrook Labs). […] Percentage inhibition of enzyme activity was then calculated at each compound dose. IC50 and Ki(app) (using known assay and kinetic parameters) values were calculated from percentage inhibition data using a non-linear, tight-binding algorithm. All data analysis was undertaken using the Screener® software package (Genedata, Switzerland).

Chain of GCN2 kinase (Q9P2K8 whole entry): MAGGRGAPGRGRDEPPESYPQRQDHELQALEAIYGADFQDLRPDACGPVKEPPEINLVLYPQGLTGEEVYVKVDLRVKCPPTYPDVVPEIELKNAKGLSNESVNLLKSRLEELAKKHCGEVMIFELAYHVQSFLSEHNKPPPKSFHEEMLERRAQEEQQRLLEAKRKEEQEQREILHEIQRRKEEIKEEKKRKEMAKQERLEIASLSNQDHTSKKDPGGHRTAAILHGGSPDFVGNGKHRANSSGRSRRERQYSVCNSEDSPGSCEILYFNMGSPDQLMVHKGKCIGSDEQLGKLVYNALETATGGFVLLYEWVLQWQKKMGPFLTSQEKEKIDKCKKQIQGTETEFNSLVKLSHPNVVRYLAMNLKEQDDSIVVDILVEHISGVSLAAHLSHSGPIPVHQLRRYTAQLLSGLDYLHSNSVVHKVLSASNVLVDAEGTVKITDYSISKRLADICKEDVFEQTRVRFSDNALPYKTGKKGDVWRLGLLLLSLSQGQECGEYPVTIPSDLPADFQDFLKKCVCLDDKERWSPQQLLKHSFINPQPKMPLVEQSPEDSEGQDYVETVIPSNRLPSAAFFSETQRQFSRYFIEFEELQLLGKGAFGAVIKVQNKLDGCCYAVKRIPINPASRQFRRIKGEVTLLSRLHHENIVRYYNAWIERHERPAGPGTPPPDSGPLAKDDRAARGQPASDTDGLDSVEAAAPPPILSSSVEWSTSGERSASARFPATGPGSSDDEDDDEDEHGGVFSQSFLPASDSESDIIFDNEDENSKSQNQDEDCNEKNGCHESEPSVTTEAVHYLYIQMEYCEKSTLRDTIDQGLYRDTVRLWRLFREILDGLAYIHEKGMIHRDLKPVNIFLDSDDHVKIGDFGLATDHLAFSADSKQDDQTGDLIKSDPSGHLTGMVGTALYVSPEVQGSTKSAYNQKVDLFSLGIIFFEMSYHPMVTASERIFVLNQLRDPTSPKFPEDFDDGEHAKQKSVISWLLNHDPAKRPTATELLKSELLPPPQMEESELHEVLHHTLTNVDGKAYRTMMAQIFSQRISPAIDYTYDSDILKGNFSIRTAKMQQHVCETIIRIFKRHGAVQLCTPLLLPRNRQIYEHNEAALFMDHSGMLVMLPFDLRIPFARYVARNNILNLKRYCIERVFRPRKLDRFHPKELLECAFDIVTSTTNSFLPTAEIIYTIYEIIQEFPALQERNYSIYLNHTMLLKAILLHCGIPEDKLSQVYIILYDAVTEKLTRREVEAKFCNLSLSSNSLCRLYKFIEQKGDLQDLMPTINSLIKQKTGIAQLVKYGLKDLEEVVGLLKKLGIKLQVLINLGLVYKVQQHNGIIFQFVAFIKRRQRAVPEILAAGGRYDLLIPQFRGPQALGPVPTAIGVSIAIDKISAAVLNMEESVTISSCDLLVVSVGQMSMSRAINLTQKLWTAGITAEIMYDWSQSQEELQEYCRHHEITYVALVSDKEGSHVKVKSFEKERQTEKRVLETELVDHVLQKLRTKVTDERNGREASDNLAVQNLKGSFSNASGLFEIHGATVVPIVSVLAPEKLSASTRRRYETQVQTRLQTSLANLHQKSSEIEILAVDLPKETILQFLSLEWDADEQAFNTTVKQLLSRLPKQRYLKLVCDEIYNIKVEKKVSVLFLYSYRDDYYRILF

IC50	SMILES
100 to 1000 nM	OCc1cn(C2CCCN(c3ccnc(-c4cnc5ccc(C(F)(F)F)cn45)n3)C2)nn1 (stereo not shown) [I-382, (1-(1-(2-(6-(trifluoromethyl)imidazo[1,2-a]pyridin-3-yl)pyrimidin-4-yl)piperidin-3-yl)-1H-1,2,3-triazol-4-yl)methanol]
100 to 1000 nM	Clc1ccc2ncc(-c3nccc(N4CCCC5(CNC5)C4)n3)n2c1 [I-299, 6-(2-(6-chloroimidazo[1,2-a]pyridin-3-yl)pyrimidin-4-yl)-2,6-diazaspiro[3.5]nonane]
10 to 100 nM	C[C@@H]1C[C@@H](c2cn[nH]c2)CN(c2nccc(-c3cnc4ccc(Cl)cn34)n2)C1 (stereo in doubt) [I-195, 6-chloro-3-(2-((3R,5S)-3-methyl-5-(1H-pyrazol-4-yl)piperidin-1-yl)pyrimidin-4-yl)imidazo[1,2-a]pyridine]
10 to 100 nM	C[C@H]1CN(c2nccc(-c3cnc4ccc(C(F)(F)F)cn34)n2)C[C@@H](c2nn[nH]n2)O1 [I-189, (2S,6S)-2-methyl-6-(2H-tetrazol-5-yl)-4-(4-(6-(trifluoromethyl)imidazo[1,2-a]pyridin-3-yl)pyrimidin-2-yl)morpholine]
100 to 1000 nM	O=C(O)C1(O)CCCN(c2ccnc(-c3cnc4ccc(C(F)(F)F)cn34)n2)C1 (stereo not shown) [I-214, 3-hydroxy-1-(2-(6-(trifluoromethyl)imidazo[1,2-a]pyridin-3-yl)pyrimidin-4-yl)piperidine-3-carboxylic acid]
10 to 100 nM	CC1C(C(N)=O)NCCN1c1ccnc(-c2cnc3cc(F)c(C4CC4)cn23)n1 (stereo not shown) [I-455, 4-(2-(6-cyclopropyl-7-fluoroimidazo[1,2-a]pyridin-3-yl)pyrimidin-4-yl)-3-methylpiperazine-2-carboxamide]
100 to 1000 nM	Cc1nn(C)cc1[C@H]1C[C@@H](C)CN(c2nccc(-c3cnc4ccc(C(F)(F)F)cn34)n2)C1 [I-142, 3-(2-((3R,5R)-3-(1,3-dimethyl-1H-pyrazol-4-yl)-5-methylpiperidin-1-yl)pyrimidin-4-yl)-6-(trifluoromethyl)imidazo[1,2-a]pyridine]
100 to 1000 nM	CC(C)(C)OC(=O)N1CC2(C1)CN(c1ccnc(-c3cnc4ccc(C(F)(F)F)cn34)n1)CC(C)(C)O2 [I-292, tert-butyl 6,6-dimethyl-8-(2-(6-(trifluoromethyl)imidazo[1,2-a]pyridin-3-yl)pyrimidin-4-yl)-5-oxa-2,8-diazaspiro[3.5]nonane-2-carboxylate]
10 to 100 nM	FC(F)(F)c1ccc2ncc(-c3nccc(N4CCN(C5CCOCC5)C(c5cn[nH]c5)C4)n3)n2c1 (stereo not shown) [I-456, 3-(4-(3-(1H-pyrazol-4-yl)-4-(tetrahydro-2H-pyran-4-yl)piperazin-1-yl)pyrimidin-2-yl)-6-(trifluoromethyl)imidazo[1,2-a]pyridine]
10 to 100 nM	CC1C(C(N)=O)NCCN1c1ccnc(-c2cnc3ccc(C(F)F)cn23)n1 (stereo not shown) [I-378, 4-(2-(6-(difluoromethyl)imidazo[1,2-a]pyridin-3-yl)pyrimidin-4-yl)-3-methylpiperazine-2-carboxamide]
100 to 1000 nM	Cc1nn(C)cc1[C@H]1C[C@H](C)CN(c2nccc(-c3cnc4ccc(C(F)(F)F)cn34)n2)C1 [I-139, 3-(2-((3R,5S)-3-(1,3-dimethyl-1H-pyrazol-4-yl)-5-methylpiperidin-1-yl)pyrimidin-4-yl)-6-(trifluoromethyl)imidazo[1,2-a]pyridine]
100 to 1000 nM	O=C(N[C@H]1C[C@H](O)CN(c2ccnc(-c3cnc4ccc(C(F)(F)F)cn34)n2)C1)c1cn[nH]c1 [I-257, N-((3S,5S)-5-hydroxy-1-(2-(6-(trifluoromethyl)imidazo[1,2-a]pyridin-3-yl)pyrimidin-4-yl)piperidin-3-yl)-1H-pyrazole-4-carboxamide]
100 to 1000 nM	O=S1(=O)CCN2CCN(c3ccnc(-c4cnc5ccc(C(F)(F)F)cn45)n3)CC2C1 (stereo not shown) [I-338, 8-(2-(6-(trifluoromethyl)imidazo[1,2-a]pyridin-3-yl)pyrimidin-4-yl)octahydropyrazino[2,1-c][1,4]thiazine 2,2-dioxide]
< 10 nM	CC1C(C(N)=O)NCCN1c1ccnc(-c2cnc3ccc(C(F)(F)F)cn23)n1 (stereo not shown) [I-380, 3-methyl-4-{2-[6-(trifluoromethyl)imidazo[1,2-a]pyridin-3-yl]pyrimidin-4-yl}piperazine-2-carboxamide]
100 to 1000 nM	C[C@H]1C[C@@H](N=S(C)(C)=O)CN(c2ccnc(-c3cnc4ccc(S(N)(=O)=O)cn34)n2)C1 [I-328, 3-(4-((3R,5S)-3-((dimethyl(oxo)-λ6-sulfaneylidene)amino)-5-methylpiperidin-1-yl)pyrimidin-2-yl)imidazo[1,2-a]pyridine-6-sulfonamide]
10 to 100 nM	NC(=O)CC1CN(c2ccnc(-c3cnc4ccc(C(F)(F)F)cn34)n2)C1 [I-230, 2-(1-(2-(6-(trifluoromethyl)imidazo[1,2-a]pyridin-3-yl)pyrimidin-4-yl)azetidin-3-yl)acetamide]
10 to 100 nM	C[C@H]1[C@H](C(N)=O)NCCN1c1ccnc(-c2cnc3cc(F)c(C4CC4)cn23)n1 [I-454, (2R,3 S)-4-(2-(6-cyclopropyl-7-fluoroimidazo[1,2-a]pyridin-3-yl)pyrimidin-4-yl)-3-methylpiperazine-2-carboxamide]
10 to 100 nM	O=C(O)C1CC(F)CN(c2ccnc(-c3cnc4ccc(C(F)(F)F)cn34)n2)C1 (stereo not shown) [I-206, 5-fluoro-1-[2-(6-trifluoromethyl-imidazo[1,2-a]pyridin-3-yl)-pyrimidin-4-yl]-piperidine-3-carboxylic acid]
100 to 1000 nM	C[C@@H]1C[C@H](N=S(C)(C)=O)CN(c2ccnc(-c3cnc4ccc(N5CC(F)C5)cn34)n2)C1 [I-330, (((3 S,5R)-1-(2-(6-(3-fluoroazetidin-1-yl)imidazo[1,2-a]pyridin-3-yl)pyrimidin-4-yl)-5-methylpiperidin-3-yl)imino)dimethyl-λ6-sulfanone]
10 to 100 nM	CC1C(C(N)=O)NCCN1c1ccnc(-c2cnc3ccc(Cl)cn23)n1 (stereo not shown) [I-451, 4-(2-{6-chloroimidazo[1,2-a]pyridin-3-yl}pyrimidin-4-yl)-3-methylpiperazine-2-carboxamide]
10 to 100 nM	Cc1nnc(C)n1[C@@H]1C[C@@H](C)CN(c2nccc(-c3cnc4ccc(C(F)(F)F)cn34)n2)C1 [I-467, 3-(2-((3R,5R)-3-(3,5-dimethyl-4H-1,2,4-triazol-4-yl)-5-methylpiperidin-1-yl)pyrimidin-4-yl)-6-(trifluoromethyl)imidazo[1,2-a]pyridine]
100 to 1000 nM	Cc1cnc(N2C[C@H](C)C[C@H](N=S(C)(C)=O)C2)nc1-c1cnc2ccc(Cl)cn12 [I-167, (((3 S,5R)-1-(4-(6-chloroimidazo[1,2-a]pyridin-3-yl)-5-methylpyrimidin-2-yl)-5-methylpiperidin-3-yl)imino)dimethyl-λ6-sulfanone]
100 to 1000 nM	Cc1nn(C)cc1[C@H]1CN(c2nccc(-c3cnc4ccc(C(F)(F)F)cn34)n2)C[C@H](C)O1 [I-156, (2S,6S)-2-(1,3-dimethyl-1H-pyrazol-4-yl)-6-methyl-4-(4-(6-(trifluoromethyl)imidazo[1,2-a]pyridin-3-yl)pyrimidin-2-yl)morpholine]
10 to 100 nM	CC1C(C(N)=O)NCCN1c1ccnc(-c2cnc3cc(F)c(C4CC4)cn23)n1 (stereo not shown) [I-427, 4-(2-(6-cyclopropyl-7-fluoroimidazo[1,2-a]pyridin-3-yl)pyrimidin-4-yl)-3-methylpiperazine-2-carboxamide]
100 to 1000 nM	NC(=O)[C@@H]1CN(c2ccnc(-c3cnc4ccc(Cl)cn34)n2)CCN1C1CC1 [I-350, (s)-4-(2-(6-chloroimidazo[1,2-a]pyridin-3-yl)pyrimidin-4-yl)-1-cyclopropylpiperazine-2-carboxamide]
100 to 1000 nM	Cc1nnc(C2CN(c3ccnc(-c4cnc5ccc(C(F)(F)F)cn45)n3)CCN2)[nH]1 (stereo not shown) [I-337, 3-(4-(3-(5-methyl-4H-1,2,4-triazol-3-yl)piperazin-1-yl)pyrimidin-2-yl)-6-(trifluoromethyl)imidazo[1,2-a]pyridine]
10 to 100 nM	CC1(C(N)=O)CCN(c2ccnc(-c3cnc4ccc(C(F)(F)F)cn34)n2)CC1 [I-188, 4-methyl-1-(2-(6-(trifluoromethyl)imidazo[1,2-a]pyridin-3-yl)pyrimidin-4-yl)piperidine-4-carboxamide]
100 to 1000 nM	C[C@@H]1[C@H](C(N)=O)NCCN1c1ccnc(-c2cnc3ccc(C(F)(F)F)cn23)n1 [I-434, (2R,3R)-3-methyl-4-(2-(6-(trifluoromethyl)imidazo[1,2-a]pyridin-3-yl)pyrimidin-4-yl)piperazine-2-carboxamide]
10 to 100 nM	N#CC1(C(=O)N2CCN(c3ccnc(-c4cnc5ccc(C(F)(F)F)cn45)n3)CC2c2cn[nH]c2)CC1 (stereo not shown) [I-432, 1-(2-(1H-pyrazol-4-yl)-4-(2-(6-(trifluoromethyl)imidazo[1,2-a]pyridin-3-yl)pyrimidin-4-yl)piperazine-1-carbonyl)cyclopropane-1-carbonitrile]

Same assay, conditions: Ki(app); 280 μM ATP, 200 μM (RS)7 peptide, 4 nM GCN2, 25° C.

Ki	SMILES
< 10 nM	CC1C(C(N)=O)NCCN1c1ccnc(-c2cnc3ccc(C(F)(F)F)cn23)n1 (stereo not shown) [I-380, 3-methyl-4-{2-[6-(trifluoromethyl)imidazo[1,2-a]pyridin-3-yl]pyrimidin-4-yl}piperazine-2-carboxamide]
100 to 1000 nM	Cc1nnc([C@@H]2CN(c3ccnc(-c4cnc5ccc(C#N)cn45)n3)C[C@H](C)O2)o1 (relative stereo) [I-94, 3-{4-[cis-2-methyl-6-(5-methyl-1,3,4-oxadiazol-2-yl)morpholin-4-yl]pyrimidin-2-yl}imidazo[1,2-a]pyridine-6-carbonitrile]
